According to patent US20260035479A1, “GD2 BI-SPECIFIC INVARIANT NATURAL KILLER T CELL ENGAGERS AND METHODS OF USE THEREOF” (The Children's Hospital of Philadelphia, priority 2022, published 2026):

Legend:
hepatic iNKTs = assay: Glycolipid antigen-iNKT stimulation in mice, hepatic iNKT cytokine expression by flow cytometry; type: in vivo, C57BL/6 mice; conditions: for IFN-γ MFI relative to PBS: n=2; for iNKT expression of intracellular IL-4 vs PBS / iNKT expression of surface CD107a vs PBS / expression of IFN-γ in iNKTs: acute stimulation, 4 μg intraperitoneal; for expression of IFN-γ in iNKTs: livers harvested at hour 4, PBS control 10.1%
Protocol: FIG. 7: iNKT Response to Glycolipid Antigen Stimulation. Two C57BL/6 mice per group were injected with phosphate-buffered saline (PBS), alpha-galactosyl ceramide (a-GalCer), or C34 at hour 0. At hour 4, mice were euthanized, their livers were excised and hepatic lymphocytes isolated and stained for NK1.1+ TCR-β+ mononuclear single cells, and intracellular IFN-γ was assayed by flow cytometry. The IFN-γ positive gate was drawn based on unstained controls. Representative data shown are from one mouse.
FIGS. 8A-8C: Acute and Chronic cytokine expression following GAg-stimulation of iNKTs. Two C57BL/6 mice per group were injected with 4 μg of C34, alpha galactosyl-ceramide (aGC), or Phosphate-Buffered Saline (PBS), in acute or chronic stimulation groups. Hepatic lymphocytes were then isolated and stained for NK1.1, TCR-β, and interferon-gamma (IFN-γ) with intra- and extracellular staining methods. (FIG. 8A) IFN-γ mean fluorescence intensity (MFI) of iNKTs. (FIG. 8B) CD107a MFI of iNKTs. (FIG. 8C) Interleukin-4 MFI of iNKTs.
Glycolipid antigen-iNKT stimulation experiments. C57/BL6 mice were injected with free glycolipid antigen or phosphate-buffered saline (PBS) intraperitoneally at a dose of 4 μg per injection in “acute” and “chronic” exposure situations. In acute stimulation conditions, intraperitoneal injections were given at hour 0, then at hour 4 mice were sacrificed and livers harvested and processed as above. In chronic stimulation conditions, animals received the 4 μg dose of glycolipid antigen days 0, 4, and 7. Livers were then harvested 4 hours after the final intraperitoneal injection and processed as described above. Hepatic mononuclear cells were extracellularly stained with fluorophore-labeled loaded-CD1d tetramer, anti-NK1.1, anti-CD107a, and then fixed and stained intracellularly with anti-IFN-Y, anti-IL-4, anti-TCR-β using a Fixation/Permeabilization kit (BD) and analyzed on FACSVerse flow cytometer (BD).
Data Analysis. Cytokinc expression analysis: FCS files were analyzed using Flowjo (TreeStar) software. Mean fluorescence intensity (MFI) of IFN-γ CD107a, and IL-4 on iNKT cells was compared between PBS, aGC, and C34-stimulated groups using Graphpad (Prism) and compared using Student's t-test between two Groups (ex: PBS vs aGC), and one-way ANOVA for comparison of PBS, aGC, and C34.

[1] = tested on: patients with advanced solid tumors; conditions: Giaccone et al., 2002; cited from earlier work
EL4 lymphoma cells = assay: 51Cr-release killing assay of EL4 lymphoma cells with murine hepatic lymphocytes or sorted iNKTs; type: cell-based; conditions: for percent specific lysis relative to control: sorted murine iNKTs as effectors, p=0.014 C34 vs control; for percent specific lysis in comparison with control: unsorted hepatic lymphocytes as effectors, 100 ng/mL glycolipid antigen, p=0.0133 C34 vs nothing added
Protocol: FIGS. 9A-9B: iNKT-mediated cytotoxicity with glycolipid antigen (GAg) stimulation. (FIG. 9A) C57BL/6 hepatic lymphocytes (effectors) were co-cultured for 18 hours with ^51Cr-loaded EL4 lymphoma cells (targets) in triplicates at E:T ratios of 2.5:1, 5:1,10:1, 20:1, and 40:1; these cocultures were stimulated with either alpha galactosyl-ceramide (a-GalCer) or C34 at indicated concentrations or left unstimulated (Nothing added). (FIG. 9B) Similar experiments were performed with flow cytometrically sorted murine hepatic iNKTs as effector populations.
^51Cr Killing Assays. EL4 lymphoma cells were used as targets and were labeled with ^51Cr (Perkin-Elmer) at a ratio of 1 μCi per 1×10^6 cells at 37° C. for 1 hour; excess ^51Cr was removed by extensive washing in RPMI media as described previously (Orange et al., 2022). Murine hepatic iNKT-enriched cell populations and flow cytometrically sorted iNKTs were plated in 96-well round-bottom wells. 2×10^5 target cells were then mixed with these iNKTs in each well at designated effector to target ratios with 100 ng/mL of glycolipid antigen in triplicate. After 16 hours, supernatants from each well were transferred to a Deepwell Lumiplate (Perkin Elmer), dried overnight, and then analyzed by a TopCount gamma radiation detector (Perkin Elmer). Spontaneous release was determined by collecting supernatants from cultures of targets alone, while maximum lysis was measured from the supernatants of target cells that were fully lysed with detergent. Percent specific lysis was calculated by the equation: 100× (sample lysis cpm-spontaneously released cpm)/(maximum cpm-spontaneously released cpm), as described previously (Orange et al., 2022).
^51Cr-release killing assays: Percent specific lysis was calculated as described above and triplicate values were analyzed using Graphpad (Prism). Mean values and standard errors of the mean were calculated. Percent specific lysis among the three groups were compared using one-way ANOVA. Significance was set at p value of <0.05.

iNKTs = conditions: Parekh, 2005; cited from earlier work
[2] = acute stimulation protocol, p=0.012 aGC vs PBS, p=0.0034 C34 vs PBS
[3] = chronic stimulation protocol, three intraperitoneal injections over 7 days, p=0.0010 for C34

| Compound | IFN-γ MFI relative to PBS (hepatic iNKTs; [2]) | iNKT expression of intracellular IL-4 vs PBS (hepatic iNKTs) | iNKT expression of surface CD107a vs PBS (hepatic iNKTs) | expression of IFN-γ in iNKTs (hepatic iNKTs) | IFN-γ MFI relative to PBS (hepatic iNKTs; [3]) | disease response [1] | dose-limiting toxicities [1] | patients with increased serum GM-CSF and TNF-α [1] | percent specific lysis relative to control (EL4 lymphoma cells) | percent specific lysis in comparison with control (EL4 lymphoma cells) | duration of iNKT anergy following stimulation (iNKTs) | IFN-γ MFI, chronic vs acute group (hepatic iNKTs; chronic versus acute stimulation with the same glycolipid) |
| --- | --- | --- | --- | --- | --- | --- | --- | --- | --- | --- | --- | --- |
| CCCCCCCCCCCCCCCCCCCCCCCCCC(=O)N[C@@H](CO[C@H]1O[C@H](CO)[C@H](O)[C@H](O)[C@H]1O)[C@H](O)[C@H](O)CCCCCCCCCCCCCC [aGC, α-GalactosylCeramide] | increased | No significant differences | No significant differences | 30.4 % of iNKTs | no difference | without disease response | no dose-limiting toxicities | 5 of 24 | greater | higher | up to 6 months |  |
| phenyl α-GalactosylCeramide [C34] | increased | No significant differences | No significant differences | 71.4 % of iNKTs | greater |  |  |  | greater | higher |  | not a significant difference |
